Reference: article PMC6714936 (Clinical and Applied Thrombosis/Hemostasis, 2019)

Biological target: factor Xa (Bos taurus, UniProt P00743)
Assay: kinetic amidolytic
Assay type: biochemical

Chain of factor Xa (P00743 41-180): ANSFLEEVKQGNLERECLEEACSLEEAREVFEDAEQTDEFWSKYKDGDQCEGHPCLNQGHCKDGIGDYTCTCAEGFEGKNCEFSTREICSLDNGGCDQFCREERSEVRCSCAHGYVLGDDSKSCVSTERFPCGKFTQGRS
Chain of factor Xa (P00743 234-492): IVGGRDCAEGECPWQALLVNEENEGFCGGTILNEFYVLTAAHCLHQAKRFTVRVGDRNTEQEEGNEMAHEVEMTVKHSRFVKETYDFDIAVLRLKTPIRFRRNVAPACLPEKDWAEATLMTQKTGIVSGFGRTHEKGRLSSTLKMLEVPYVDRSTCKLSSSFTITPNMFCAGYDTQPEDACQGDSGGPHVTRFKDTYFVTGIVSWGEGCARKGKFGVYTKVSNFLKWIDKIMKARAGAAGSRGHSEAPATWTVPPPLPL

- IC50: 2880 nM
SMILES: COc1ccc(NC(=O)c2ccc(C(=N)N(C)C)cc2)c(C(=O)Nc2ccc(Cl)cn2)c1 [Betrixaban]
